Patent US7691420B2, “Compositions for the treatment and prevention of diabetes mellitus” (priority 2003, dated 2010)
Entries after “also recorded” stand apart in the source; their conditions may differ. Marks after values point to notes of the source that are not given here.

Legend:
[1] = system: C57BLKS/J db/db mice; assay: Body weight, adipose tissue weight and food intake in the 4-week db/db mouse study; type: in vivo; settings: for Total adipose tissue weight / Body weight: 4 weeks feed-ad-mix, 1% EGCG and/or 0.038% rosiglitazone in diet, group means; for Total adipose tissue weight: by NMR; for Body weight: * vs control, # vs rosiglitazone (P<0.05)
Protocol: (§1) This model of late type 2 diabetes with severe hyperglycemia and obesity is widely used to determine the efficacy of anti-diabetic and anti-obesity compounds.
(§2) Male db/db mice were obtained from Jackson Laboratory (Bar Harbor, Me., USA). Adult mice aged 8 weeks were used in the experiment. Mice were housed individually in plastic cages with bedding and allowed free access to standard rodent food and tap water. The animal rooms were controlled for temperature (24° C.), humidity (55%), and light (12-h light-dark cycle). The animals were randomized into four groups. […] Body weight and food intake were determined over the course of the study. Total adipose tissue weight was determined by NMR. After four weeks of treatment an oral glucose tolerance test was carried out after an overnight fasting period. The blood glucose levels were measured before (fasted state glucose levels) application of an oral glucose load (1 g/kg body weight) and after 15, 30, 45, 60, 90, 120, 150 and 180 minutes. Area under the curve (AUC) was calculated from the resulting blood glucose curves and served as an indicator of glucose tolerance. At the end of the study, fed state levels of glucose, triglycerides and free fatty acids were determined in plasma. All data are expressed as means for animals in each group.

[2] = system: C57BLKS/J db/db mice; assay: Oral glucose tolerance test and fasted state glucose in db/db mice after 4 weeks; type: in vivo; settings: for Fasted state glucose: blood, overnight fasting, before glucose load
Protocol: as §1, §2

[3] = system: C57BLKS/J db/db mice; assay: Fed state plasma glucose, triglycerides and free fatty acids in db/db mice at end of study; type: in vivo; settings: 4 weeks
Protocol: as §1, §2

[4] = system: C3H10T1/2; assay: Adipocyte differentiation of C3H10T1/2 cells, oil red O staining; type: cell-based; settings: for Optical Density: extracted oil red O stain after 11-day treatment, insulin 100 nM
From the text: After the 11-day treatment, the cells were stained with oil red O. This was followed by extraction of the stain for concentration determination.

[5] = 1% EGCG and/or 0.038% rosiglitazone in diet
[6] = fed state plasma, 1% EGCG and/or 0.038% rosiglitazone in diet

Compound: CN(CCOc1ccc(CC2SC(=O)NC2=O)cc1)c1ccccn1 (stereo not shown) [Rosiglitazone, rosiglitazone, reference compound]
- Total adipose tissue weight [1]: 29.0* g
- Body weight [1]: 50.0* g
- Fasted state glucose [2, 5]: 98.0* mg/dl
- Free fatty acids [3, 6]: 25.2* mmol/l
- Glucose [3, 6]: 22.1* mmol/l
- Triglycerides [3, 6]: 1.01* mmol/l

Compound: (−)-epigallocatechin gallate [EGCG]
- Adipocyte differentiation (result in words) ([4]; C3H10T1/2 cells, 11-day treatment, oil Red O staining): blocked TZD-induced adipocyte differentiation; also recorded: blocked ligustilide-induced adipocyte differentiation
- Total adipose tissue weight [1]: 20.9*# g
- Body weight [1]: 38.8*# g
- Body weight and adipose tissue weight (result in words) ([1]; 4 weeks, compared to control mice): moderately decreased
- Fasted state glucose [2, 5]: 132.1* mg/dl
- AUC ([2]; 1% EGCG and/or 0.038% rosiglitazone in diet, oral glucose load 1 g/kg, blood glucose curve 0-180 minutes): 38353.5*
- Glucose tolerance (result in words) ([2]; AUC of oral glucose tolerance test): significantly improved
- Fasted state glucose levels (result in words) ([2]; compared to control mice): significantly reduced
- Fed state plasma levels of glucose, triglycerides, and free fatty acids (result in words) [3]: significantly reduced
- Glucose [3, 6]: 33.5*# mmol/l
- Triglycerides [3, 6]: 1.47* mmol/l

Compound: Insulin: insulin, 100 nM, used alone as comparison in the adipocyte differentiation test [reference compound]
- Optical Density ([4]; Table 1, rosiglitazone 1 × 10^−5 M, pioglitazone 2.5 × 10^−5 M, EGCG 5 × 10^−5 M): 0.21 ± 0.02
- Optical Density ([4]; Table 2, ligustilide 50 × 10^−5 M, no EGCG): 0.14 ± 0.01
